Reference: patent US11701332B2, “Methods and compositions for treating female sexual interest and arousal disorder” (priority 2020, dated 2023)

Experiments:
[1] = in vivo; cited from earlier work
libido [2] = details: after injection; cited from earlier work
[3] = biological target: peripheral androgen receptors (AR) (Homo sapiens, UniProt P10275); details: 450 mg darolutamide twice daily, person
Method: A person diagnosed with FSIAD is administered a 30 mg testosterone enanthate injection weekly, and a dose of 450 mg of darolutamide twice daily to achieve partial (90%) AR blockage peripherally, rather than total (100%) AR blockage.

[4] = in vivo; cited from earlier work; remark: listed apart in the source
[5] = cited from earlier work
libido [6] = details: biological women receiving testosterone as part of gender transition therapy; cited from earlier work
libido [7] = details: sublingual testosterone, short testosterone spike; cited from earlier work

peripheral androgen receptors (AR), sequence (P10275 whole entry): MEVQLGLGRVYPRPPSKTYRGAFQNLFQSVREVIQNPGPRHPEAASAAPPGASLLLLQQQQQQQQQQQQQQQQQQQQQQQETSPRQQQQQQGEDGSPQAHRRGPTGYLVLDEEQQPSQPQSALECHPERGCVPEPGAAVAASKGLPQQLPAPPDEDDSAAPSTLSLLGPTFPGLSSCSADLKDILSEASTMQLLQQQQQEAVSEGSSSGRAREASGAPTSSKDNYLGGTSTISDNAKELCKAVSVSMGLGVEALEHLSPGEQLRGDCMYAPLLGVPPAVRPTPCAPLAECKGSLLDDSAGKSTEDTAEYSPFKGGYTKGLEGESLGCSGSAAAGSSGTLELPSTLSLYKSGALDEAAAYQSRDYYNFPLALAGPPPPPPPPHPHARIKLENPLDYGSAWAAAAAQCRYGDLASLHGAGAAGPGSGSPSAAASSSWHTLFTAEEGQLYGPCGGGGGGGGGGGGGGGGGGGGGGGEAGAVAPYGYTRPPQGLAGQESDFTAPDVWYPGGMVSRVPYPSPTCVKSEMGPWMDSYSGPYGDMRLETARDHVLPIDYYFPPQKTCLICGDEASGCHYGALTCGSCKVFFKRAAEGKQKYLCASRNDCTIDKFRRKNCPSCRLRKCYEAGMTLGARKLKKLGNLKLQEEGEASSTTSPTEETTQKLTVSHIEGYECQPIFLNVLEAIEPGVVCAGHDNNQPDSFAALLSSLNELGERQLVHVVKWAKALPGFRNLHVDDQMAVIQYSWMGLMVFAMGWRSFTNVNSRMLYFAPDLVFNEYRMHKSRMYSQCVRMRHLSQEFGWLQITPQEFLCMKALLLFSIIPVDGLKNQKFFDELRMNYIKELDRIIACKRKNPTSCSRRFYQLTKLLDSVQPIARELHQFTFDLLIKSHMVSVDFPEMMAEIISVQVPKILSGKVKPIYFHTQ

CC(O)(CS(=O)(=O)c1ccc(F)cc1)C(=O)Nc1ccc(C#N)c(C(F)(F)F)c1 (stereo not drawn) [bicalutamide]
crossing of the blood-brain barrier [1]: do not cross the blood-brain barrier

CCCC[C@H](NC(C)=O)C(=O)N[C@H]1CC(=O)NCCCC[C@@H](C(=O)O)NC(=O)[C@H](Cc2c[nH]c3ccccc23)NC(=O)[C@H](CCCN=C(N)N)NC(=O)[C@@H](Cc2ccccc2)NC(=O)[C@H](Cc2cnc[nH]2)NC1=O [bremelanotide]
libido boost (libido [2]): temporary libido boost shortly after injection

CC(O)c1cc(C(=O)N[C@@H](C)Cn2ccc(-c3ccc(C#N)c(Cl)c3)n2)[nH]n1 (stereo partly drawn) [darolutamide]
AR blockage peripherally [3]: 90% | adverse effects [4]: does not cause major adverse effects | crossing of the blood-brain barrier [1]: do not cross the blood-brain barrier

O=c1[nH]c2ccccc2n1CCN1CCN(c2cccc(C(F)(F)F)c2)CC1 [flibanserin]
adverse effects [4]: low blood pressure

C[C@H]1CC(=O)C[C@@H]2CC[C@H]3[C@@H]4CC[C@H](O)[C@@]4(C)CC[C@@H]3[C@]21C [mesterolone]
oral bioavailability [5]: 3%

C[C@]12CC[C@H]3[C@@H](CCC4=CC(=O)CC[C@@]43C)[C@@H]1CC[C@@H]2O [testosterone]
women reporting an increase in libido (libido [6]): 71% | time until libido boost (libido [7]): 3.5 h
